Holding throughout (assay type): biochemical
The target in one test is T1, full-length collagenase (Homo sapiens, UniProt P03956).
T1 construct: full-length collagenase hydrolysis of thiopeptolide substrate (FLC)
T1 sequence (P03956 100-469): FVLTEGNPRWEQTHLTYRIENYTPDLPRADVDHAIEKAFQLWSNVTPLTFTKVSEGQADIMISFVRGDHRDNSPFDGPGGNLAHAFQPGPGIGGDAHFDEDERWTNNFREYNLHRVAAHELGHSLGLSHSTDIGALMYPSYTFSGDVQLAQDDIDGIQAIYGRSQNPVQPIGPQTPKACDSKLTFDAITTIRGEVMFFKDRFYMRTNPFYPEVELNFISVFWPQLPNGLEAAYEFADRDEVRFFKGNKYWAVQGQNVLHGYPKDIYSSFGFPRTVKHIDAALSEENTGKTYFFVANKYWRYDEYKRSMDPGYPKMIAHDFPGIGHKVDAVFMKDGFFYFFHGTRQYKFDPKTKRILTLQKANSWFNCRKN
Briefly: full-length collagenase hydrolysis of thiopeptolide substrate (FLC). The following applies: full-length enzyme. The text has this:
The compounds were additionally evaluated for their ability to inhibit full-length collagenase hydrolysis of thiopeptolide substrate (FLC) and full-length gelatinase B (FLGB) hydrolysis of thiopeptolide.

Test [1] has as its target gelatinase A-catalytic domain. Briefly: gelatinase A catalytic domain hydrolysis of gelatin, GA CD (Gel). The following applies: gelatin substrate. The text has this: (§1) Table I below presents inhibitory activity for representative invention compounds of Formula I. In the table, GA CD (T) refers to gelatinase A-catalytic domain hydrolysis of thiopeptolide substrate; GA CD (Gel) refers to gelatinase A-catalytic domain hydrolysis of gelatin substrate; SCD (T) refers to stromelysin catalytic domain hydrolysis of thiopeptolide.

For test [2], the target named is gelatinase A-catalytic domain. Briefly: gelatinase A catalytic domain hydrolysis of thiopeptolide, GA CD (T). The following applies: thiopeptolide substrate.
Excerpt: as §1

Test [3] addresses T2, stromelysin catalytic domain (Homo sapiens, UniProt P08254).
T2 construct: stromelysin catalytic domain hydrolysis of thiopeptolide
Briefly: stromelysin catalytic domain hydrolysis of thiopeptolide, SCD (T). The following applies: thiopeptolide substrate.
Excerpt: as §1

The structures appear in SMILES notation.

T2 sequence (P08254 100-272 limits assumed): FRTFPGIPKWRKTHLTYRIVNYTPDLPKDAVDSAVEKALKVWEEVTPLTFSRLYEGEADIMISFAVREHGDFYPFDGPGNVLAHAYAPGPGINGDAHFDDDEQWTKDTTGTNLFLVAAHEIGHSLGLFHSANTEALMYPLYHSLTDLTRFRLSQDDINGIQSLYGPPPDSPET

At full-length collagenase, `CC(C)[C@H](NS(=O)(=O)c1ccc(-c2ccc(Cl)cc2)cc1)C(=O)O` [Example 2, (S)-2-(4'-Chloro-biphenyl-4-sulfonylamino)-3-methyl-butyric Acid] registered a half-maximal inhibitory concentration (IC50) of 7500 nM.
For `CC(C)[C@H](NS(=O)(=O)c1ccc(-c2ccc(C#N)cc2)cc1)C(=O)O` [Example 5, (S)-2-(4'-Cyano-biphenyl-4-sulfonylamino)-3-methyl-butyric Acid], the IC50 in test [1] turned out to be 157 nM; in test [2] it was 32 nM.
For `CC(C)C[C@H](NS(=O)(=O)c1ccc(-c2ccc(Br)cc2)cc1)C(=O)O` [Example 14, (S)-2-(4'-Bromo-biphenyl-4-sulfonylamino)-4-methyl-pentanoic Acid] the same measures were 29 nM and 15 nM.
For `CC(C)[C@H](NS(=O)(=O)c1ccc(-c2ccc(Br)cc2F)cc1)C(=O)O` [Example 8, (S)-2-(4'-Bromo-2'-fluoro-biphenyl-4-sulfonylamino)-3-methyl-butyric Acid] the same measures were 19 nM and 6 nM.
The matching figures for `O=C(O)CNS(=O)(=O)c1ccc(-c2ccc(Br)cc2)cc1` [Example 12, (4'-Bromo-biphenyl-4-sulfonylamino)-acetic Acid]: 79 nM and 21 nM.
Turning to `C[C@H](NS(=O)(=O)c1ccc(-c2ccc(Br)cc2)cc1)C(=O)O` [Example 13, (S)-2-(4'-Bromo-biphenyl-4-sulfonylamino)-propionic Acid], the IC50 in test [1] was 22 nM; in test [2], 19 nM.
Consider `CC(C)[C@H](NS(=O)(=O)c1ccc(-c2ccc(C(F)(F)F)cc2)cc1)C(=O)O` [Example 19, (S)-3-Methyl-2-(4'-trifluoromethyl-biphenyl-4-sulfonylamino)-butyric Acid], for which, in test [3], the midpoint of inhibition, the IC50, lay at 14 nM.
As for `O=C(O)[C@H](Cc1ccccc1)NS(=O)(=O)c1ccc(-c2ccc(Br)cc2)cc1` [Example 10, (S)-2-(4'-Bromo-biphenyl-4-sulfonylamino)-3-phenyl-propionic Acid], the 50% inhibitory concentration (IC50) in test [1] was 45 nM; in test [2], 26 nM.
As to `COc1ccc(-c2ccc(S(=O)(=O)N[C@H](C(=O)O)C(C)C)cc2)cc1` [Example 15, (S)-2-(4'-Methoxy-biphenyl-4-sulfonylamino)-3-methyl-butyric Acid], the concentration for half-maximal inhibition (IC50) stood at 14 nM in test [1] and 2 nM in test [2].
The matching figures for `CC(C)[C@H](NS(=O)(=O)c1ccc(-c2ccc(F)cc2)cc1)C(=O)O` [Example 16, (S)-2-(4'-Fluoro-biphenyl-4-sulfonylamino)-3-methyl-butyric Acid]: 94 nM and 51 nM.
The matching figures for `CC(C)[C@H](NS(=O)(=O)c1ccc(-c2cccc(Br)c2)cc1)C(=O)O` [Example 7, (S)-2-(3'-Bromo-biphenyl-4-sulfonylamino)-3-methyl-butyric Acid]: 1300 nM and 731 nM.

Broadly, the IC50 is the concentration needed to halve the response being measured. Read a low IC50 as greater potency.

The values above are taken from patent US5756545A, “Biphenysulfonamide matrix metal alloproteinase inhibitors” (priority 1997, dated 1998).
